Experimental data reported in patent publication US20100285959A1, “HERBICIDAL MIXTURES” (priority 2006, published 2010).

What was measured:
velvetleaf (ABUTH) [1] = experiment: Test 15 greenhouse, postemergence; settings: 12 DAA
wheat (TRZAW) = experiment: Test 30 growth chamber, postemergence; type: in vivo, Triticum aestivum
Protocol: (§1) A growth chamber test was conducted to evaluate the effects on the plant species wheat (TRZAW, Triticum aestivum L.) and barley (HORVX, Hordeum vulgare L.) with mixtures of Compound 1 and Compound 2 with glycerol. Wheat and barley seeds were planted in a sandy loam soil having 0.9% organic matter and a pH of 6.3. […] Wheat and barley plants were treated postemergence at the two leaf growth stage for Compound 1 and at the three leaf growth stage for Compound 2. Each treatment was replicated one time. […] Plants were watered as needed. […] Colby's Equation was used to determine herbicidal effects expected from the mixtures.

barley (HORVX) = experiment: Test 30 growth chamber, postemergence; type: in vivo, Hordeum vulgare
Protocol: as §1

corn (ZEAMD) [2] = experiment: Test 5 field trial, postemergence; type: in vivo, Zea mays ssp. indentata; settings: atrazine 1120, glufosinate 470 or glyphosate 1120 g a.i./ha alone
Description: (§2) Corn seeds (hybrid ‘Pioneer 38H69’) were planted in mid spring season, 5.1 cm deep in a silty clay loam soil having 3% organic matter and a pH of 6.5. Plots were 9.1 m long by 3.0 m wide with rows spaced 76 cm apart. The field was managed using conventional tillage practices. […] All treatments included a surfactant except glufosinate treatments, both alone and in combination. […] Results are summarized in Table 5 and are the means of the three replicates.

velvetleaf (ABUTH) [3] = experiment: Test 5 field trial, postemergence; type: in vivo, Abutilon theophrasti; settings: atrazine 1120, glufosinate 470 or glyphosate 1120 g a.i./ha alone
Description: as §2

common ragweed (AMBEL) = experiment: Test 5 field trial, postemergence; type: in vivo, Ambrosia artemisiifolia; settings: atrazine 1120, glufosinate 470 or glyphosate 1120 g a.i./ha alone
Description: as §2

shepherd's purse (CAPBP) = experiment: Test 5 field trial, postemergence; type: in vivo, Capsella bursa-pastoris; settings: atrazine 1120, glufosinate 470 or glyphosate 1120 g a.i./ha alone
Description: as §2

[4] = tested on: common lambsquarters (CHEAL); experiment: Test 5 field trial, postemergence; type: in vivo, Chenopodium album; settings: atrazine 1120, glufosinate 470 or glyphosate 1120 g a.i./ha alone
Description: as §2

large crabgrass (DIGSA) = experiment: Test 5 field trial, postemergence; type: in vivo, Digitaria sanguinalis; settings: atrazine 1120, glufosinate 470 or glyphosate 1120 g a.i./ha alone
Description: as §2

giant foxtail (SETFA) [5] = experiment: Test 5 field trial, postemergence; type: in vivo, Setaria faberi; settings: atrazine 1120, glufosinate 470 or glyphosate 1120 g a.i./ha alone
Description: as §2

yellow foxtail (SETLU) [6] = experiment: Test 5 field trial, postemergence; type: in vivo, Setaria glauca; settings: atrazine 1120, glufosinate 470 or glyphosate 1120 g a.i./ha alone
Description: as §2

field pennycress (THLAR) = experiment: Test 5 field trial, postemergence; type: in vivo, Thlaspi arvense; settings: atrazine 1120, glufosinate 470 or glyphosate 1120 g a.i./ha alone
Description: as §2

corn (ZEAMD) [7] = experiment: Test 6 field trial, postemergence; type: in vivo, Zea mays ssp. indentata; settings: 470 g a.i./ha
Description: (§3) Corn seeds (hybrid ‘Pioneer 35Y62’) were planted in mid spring season, 3.8 cm deep in a silt loam soil having 4% organic matter and a pH of 5.8. Plots were 10.7 m long by 1.5 m wide with rows spaced 76 cm apart. Seeds were spaced 18 cm apart within the rows. The field was managed using conventional tillage practices. […] All treatments included a surfactant except glufosinate treatments, both alone and in combination. […] Results are summarized in Table 6 and are the means of the three replicates.

velvetleaf (ABUTH) [8] = experiment: Test 6 field trial, postemergence; type: in vivo, Abutilon theophrasti; settings: 470 g a.i./ha
Description: as §3

redroot pigweed (AMARE) = experiment: Test 6 field trial, postemergence; type: in vivo, Amaranthus retroflexus; settings: 470 g a.i./ha
Description: as §3

[9] = tested on: common lambsquarters (CHEAL); experiment: Test 6 field trial, postemergence; type: in vivo, Chenopodium album; settings: 470 g a.i./ha
Description: as §3

[10] = tested on: Pennsylvania smartweed (POLPY); experiment: Test 6 field trial, postemergence; type: in vivo, Polygonum pensylvanicum; settings: 470 g a.i./ha
Description: as §3

giant foxtail (SETFA) [11] = experiment: Test 6 field trial, postemergence; type: in vivo, Setaria faberi; settings: 470 g a.i./ha
Description: as §3

yellow foxtail (SETLU) [12] = experiment: Test 6 field trial, postemergence; type: in vivo, Setaria glauca; settings: 470 g a.i./ha
Description: as §3

[13] = 17 DAA, Glycerol 7100 g a.i./ha
[14] = 17 DAA, Glycerol 14200 g a.i./ha
[15] = 18 DAA, Glycerol 7100 g a.i./ha
[16] = 18 DAA, Glycerol 14200 g a.i./ha

## CCOc1cc(Oc2ccc(C(F)(F)F)cc2Cl)ccc1[N+](=O)[O-] [Oxyfluorfen]
Velvetleaf (ABUTH) [1]; 15 g a.i./ha
  Obs response, scale 0 to 100: 43
Velvetleaf (ABUTH) [1]; 30 g a.i./ha
  Obs response, scale 0 to 100: 67
Velvetleaf (ABUTH) [1]; 60 g a.i./ha
  Obs response, scale 0 to 100: 81

## O=C1[C@H]2C[C@H](F)CN2C(=O)N1c1cc(NS(=O)(=O)CCl)c(Cl)cc1F [Profluazol]
Velvetleaf (ABUTH) [1]; 2 g a.i./ha
  Obs response, scale 0 to 100: 91
Velvetleaf (ABUTH) [1]; 8 g a.i./ha
  Obs response, scale 0 to 100: 100
Velvetleaf (ABUTH) [1]; 15 g a.i./ha
  Obs response, scale 0 to 100: 100

## OCC(O)CO [Glycerol]
Wheat (TRZAW); [13]
  TRZAW Obs: 0%
Wheat (TRZAW); [14]
  TRZAW Obs: 0%
Wheat (TRZAW); [15]
  TRZAW Obs: 0%
Wheat (TRZAW); [16]
  TRZAW Obs: 0%
Barley (HORVX); [13]
  HORVX Obs: 0%
Barley (HORVX); [14]
  HORVX Obs: 0%
Barley (HORVX); [15]
  HORVX Obs: 0%
Barley (HORVX); [16]
  HORVX Obs: 0%

## CP(=O)(O)CCC(N)C(=O)O (stereo not shown) [Glufosinate]
Corn (ZEAMD) [2]; 16 DAA
  ZEAMD Obs: 0%
Corn (ZEAMD) [2]; 31 DAA
  ZEAMD Obs: 0%
Velvetleaf (ABUTH) [3]; 16 DAA
  ABUTH Obs: 33%
Velvetleaf (ABUTH) [3]; 31 DAA
  ABUTH Obs: 27%
Common ragweed (AMBEL); 16 DAA
  AMBEL Obs: 100%
Common ragweed (AMBEL); 31 DAA
  AMBEL Obs: 100%
shepherd's purse (CAPBP); 16 DAA
  CAPBP Obs: 100%
shepherd's purse (CAPBP); 31 DAA
  CAPBP Obs: 100%
[4]; 16 DAA
  CHEAL Obs: 87%
[4]; 31 DAA
  CHEAL Obs: 79%
Large crabgrass (DIGSA); 16 DAA
  DIGSA Obs: 99%
Large crabgrass (DIGSA); 31 DAA
  DIGSA Obs: 94%
Giant foxtail (SETFA) [5]; 16 DAA
  SETFA Obs: 100%
Giant foxtail (SETFA) [5]; 31 DAA
  SETFA Obs: 99%
Yellow foxtail (SETLU) [6]; 16 DAA
  SETLU Obs: 98%
Yellow foxtail (SETLU) [6]; 31 DAA
  SETLU Obs: 90%
Field pennycress (THLAR); 16 DAA
  THLAR Obs: 100%
Field pennycress (THLAR); 31 DAA
  THLAR Obs: 100%
Corn (ZEAMD) [7]; 14 DAA
  ZEAMD Obs: 0%
Corn (ZEAMD) [7]; 28 DAA
  ZEAMD Obs: 0%
Velvetleaf (ABUTH) [8]; 14 DAA
  ABUTH Obs: 0%
Velvetleaf (ABUTH) [8]; 28 DAA
  ABUTH Obs: 0%
Redroot pigweed (AMARE); 14 DAA
  AMARE Obs: 100%
Redroot pigweed (AMARE); 28 DAA
  AMARE Obs: 100%
[9]; 14 DAA
  CHEAL Obs: 100%
[9]; 28 DAA
  CHEAL Obs: 100%
[10]; 14 DAA
  POLPY Obs: 98%
[10]; 28 DAA
  POLPY Obs: 98%
Giant foxtail (SETFA) [11]; 14 DAA
  SETFA Obs: 99%
Giant foxtail (SETFA) [11]; 28 DAA
  SETFA Obs: 99%
Yellow foxtail (SETLU) [12]; 14 DAA
  SETLU Obs: 95%
Yellow foxtail (SETLU) [12]; 28 DAA
  SETLU Obs: 63%
